According to publication PMC5025780, “Copper(II) ions affect the gating dynamics of the 20S proteasome: a molecular and in cell study” (Scientific Reports, 2016):

Key:
Format in all cases: biochemical
[1] = biological target: T1, human 20S proteasome (hCP), ChT-L activity; assay: ChT-L peptidase activity of isolated hCP (Suc-LLVY-AMC fluorogenic substrate); conditions: hCP 2 nM, 1 h preincubation with ions, Tris 25 mM pH 7.6, 37 °C, no SDS; read-out: IC50 ChT-L
T1 construct: purchased Boston Biochem (Cambridge, MA, USA)
Text: (§1) Purified human 20S proteasome (hCP) and the fluorogenic substrates Suc-LLVY-AMC, Z-Leu-Leu-Glu-AMC, and Ac-Arg-Leu-Arg-AMC used to assay the ChT-L, T-L, and C-L activity, were from Boston Biochem (Cambridge, MA, USA). Bathocuproinedisulfonic acid disodium salt (BCS), dithiothreitol (DTT), N-Acetyl-L-Cysteine (NAC), Sodium dodecylsulphate (SDS) as well as CuCl2 and Zn(NO3)2 were from Sigma-Aldrich (St. Louis, MO). Proteasome inhibitors Epoxomicin were obtained from Enzo Life Science. Wild type 20S proteasome isolated from Saccharomices Cerevisiae (yCP) and a mutant (α3ΔN) where nine residues of the N-terminal tail of the α3 subunit are deleted to provide a permanently open-gate conformations were isolated as described elsewhere.
(§2) Peptidase activities of hCP (2 nM) were assayed on in 50 μL Tris 25 mM pH 7.6, at 37 °C with 100 μM of the fluorogenic substrate. hCP was incubated with Cu(II)/Zn(II) ions for 1 h prior activity assays. The fluorescence signal activated by peptide cleavage was recorded at 440 nm (excitation at 360 nm) for 45 min, by a Varioskan (Thermo^©) plate reader in 384 multiwell plates. Three replicates were performed for each data point. Data were reported as normalized percentages of residual activity. The potency (IC50) was calculated from the value of the dose response plot corresponding at a fractional activity of 50%. The IC50 values were determined using a non linear fit of experimental data in according to equation: […]
(§3) The midpoint of this function occurs at a fractional activity value of 50%, corresponding to half inhibition of the target enzyme. The IC50 values and their standard errors were deduced from the fitting. To evaluate if copper is a reversible PI, we measured the ChT-L activity of hCP incubated with Cu(II) (2.20 μM) before and after addition of an equimolar amount of EDTA.

[2] = biological target: T2, human 20S proteasome (hCP), T-L activity; assay: T-L peptidase activity of isolated hCP (fluorogenic substrate); conditions: hCP 2 nM, 1 h preincubation with ions, Tris 25 mM pH 7.6, 37 °C, no SDS; read-out: IC50 T-L
T2 construct: purchased Boston Biochem (Cambridge, MA, USA)
Text: as §1, §2, §3

[3] = biological target: T3, human 20S proteasome (hCP), C-L activity; assay: C-L peptidase activity of isolated hCP (fluorogenic substrate); conditions: hCP 2 nM, 1 h preincubation with ions, Tris 25 mM pH 7.6, 37 °C, no SDS; read-out: IC50 C-L
T3 construct: purchased Boston Biochem (Cambridge, MA, USA)
Text: as §1, §2, §3

[4] = biological target: T4, human 20S proteasome (hCP); assay: Peptidase activities of isolated hCP, all three (ChT-L, T-L, C-L); conditions: T-L and C-L of hCP, no SDS, read-out: IC50 values, range over the three peptidase activities
T4 construct: purchased Boston Biochem (Cambridge, MA, USA)
Text: as §1
as §2, with “The potency (IC50) was calculated from the value of the dose response plot corresponding at a fractional activity of 50%.” left out

Question: How did the IC50 [1] turn out when O=[N+]([O-])[O-].O=[N+]([O-])[O-].[Zn+2] [Zn(II), Zn(NO3)2, reference compound] was run?
Answer: 5.99 µM

Question: And the IC50 [2]?
Answer: 4.16 µM

Question: What about the IC50 [3] of the same compound?
Answer: 5.84 µM

Question: What about the IC50 [4] of the same compound?
Answer: 4.16 to 5.99 µM
